Experimental data from patent US7256006B2, “Method for determining the influence of a test substance on the heart activity of a vertebrate” (Multi Channel Systems MCS GmbH, priority 2003, dated 2007).
Where a name gives a salt, the structure may show the parent alone. Read-outs that look alike come from different tables or passages of the source. Each block holds one compound with its values, some of them ahead of it.

Columns and labels:
[1] = test system: ventricular myocytes from chicken embryos; experiment: extracellular MEA field potential (FPdur) measurement on spontaneously beating heart cells; format: cell-based; conditions: submicromolecular concentrations
[2] = test system: ventricular myocytes from chicken embryos; experiment: as above; format: cell-based
Protocol: The heart muscle cells were obtained by trypsin digestion of the isolated ventricle of chicken embryos (10-12 days after fertilization). The heart was freed of blood vessels and atria. The cells were cultured in MEM medium supplemented with 10% fetal calf serum (FCS). One to two days before the measurement, the medium was replaced by standard Tyrode solution.
The standard Tyrode solution was then replaced by a Tyrode solution with 5 μM of a test substance and the change in FPdur was determined. Thereafter, the concentration of the test substance was increased in logarithmic steps. A measurement was now taken every 10 minutes.
In measurements with quinidine, 0.5% DMSO was added to the cell Tyrode since quinidine is not water-soluble. The control experiment was also carried out with DMSO here.
In these qualitative evaluations, i.e. comparison of data from the respective control experiment and the data derived from addition of the QT-modifying substance, possible changes in the heart rate were taken into account.
For the normalized case, the FPdur value was divided by the square root of the time span (in seconds) between two action potentials.

[3] = literature reference; cited from earlier work

SMILES: Cc1cccc(CCN2CCC(C(=O)c3ccc(NS(C)(=O)=O)cc3)CC2)n1.Cl.Cl [E4031]
prolongation of the ventricular action potential [1]: over 90%

SMILES: COc1ccc(CCN2CCC(Nc3nc4ccccc4n3Cc3ccc(F)cc3)CC2)cc1 [astemizol]
effect on the QT interval [2]: prolongating effect

SMILES: COc1cc(N)c(Cl)cc1C(=O)NC1CCN(CCCOc2ccc(F)cc2)CC1OC (centres unmarked) [cisapride]
effect on the QT interval [2]: prolongating effect

SMILES: CC(C)(C(=O)O)c1ccc(C(O)CCCN2CCC(C(O)(c3ccccc3)c3ccccc3)CC2)cc1 (centres unmarked) [fexofenafine]
effect on the QT interval [2]: prolongating effect

SMILES: COc1cc2c(cc1OC)CC(=O)N(CCCN(C)C[C@H]1Cc3cc(OC)c(OC)cc31)CC2 [ivabradine]
effect on the QT interval [2]: No QT prolongation

SMILES: C=C[C@H]1C[N@@]2CC[C@H]1C[C@@H]2[C@@H](O)c1ccnc2ccc(OC)cc12 [quinidine]
effect on QT [3]: QT-prolonging effect
QT prolongation (increase in FPdur) ([2]; FIG. 2B, indicated quinidine concentrations for 200 seconds): QT prolongation increasing with concentration
concentrations at which QT prolongations are shown in vitro in the MEA system ([2]; chicken, 10 min): 2000 to 7000 nM
effect on the QT interval ([2]; summary of substances tested by the inventors): prolongating effect

prolongation of the field potential [2]: did not prolong the field potential
SMILES: CC1(C)Oc2ccc(S(=O)(=O)c3ccccc3)cc2[C@@H](N2CCCC2=O)[C@@H]1O [rilmakalim]
beating frequency ([2]; substance with so far unknown effect on QT interval): reduced the frequency

prolongation of the action potential [2]: about double
SMILES: CC(C)NCC(O)c1ccc(NS(C)(=O)=O)cc1 (centres unmarked) [sotalol, N-[4-[1-hydroxy-2-(isopropylamino)ethyl]phenyl]methanesulfonamidehydrochloride]
effect on the QT interval [2]: prolongating effect

SMILES: CC(C)(C)c1ccc(C(O)CCCN2CCC(C(O)(c3ccccc3)c3ccccc3)CC2)cc1 (centres unmarked) [terfenadin]
effect on the QT interval [2]: prolongating effect
